ChEMBL document CHEMBL5257124, “Design, synthesis and biological evaluation of novel indole-piperazine derivatives as antibacterial agents” (Bioorg Med Chem Lett, 2023)
pIC50: −log10 of the molar value. In brackets after ≈: the same amount, converted by molar mass. Activity calls are given as the source filed them. The calls are words filed in the database; no cut-off is given here.

Assays:
[1] = system: Staphylococcus aureus; experiment: Bactericidal activity against Staphylococcus aureus ATCC 25923 assessed as reduction in bacterial growth; assay type: functional
[2] = system: Staphylococcus aureus; experiment: Antibacterial activity against methicillin resistant Staphylococcus aureus ATCC 33591 assessed as reduction in bacterial growth; assay type: functional
[3] = system: Ralstonia solanacearum; experiment: Antibacterial activity against Ralstonia solanacearum assessed as bacterial growth inhibition; assay type: functional
[4] = system: Pseudomonas syringae; experiment: Antibacterial activity against Pseudomonas syringae pv. actinidiae assessed as bacterial growth inhibition; assay type: functional
[5] = system: Staphylococcus aureus; experiment: Antibacterial activity against Staphylococcus aureus ATCC 25923 assessed as reduction in bacterial growth; assay type: functional
[6] = system: Staphylococcus aureus; experiment: Bactericidal activity against methicillin resistant Staphylococcus aureus ATCC 33591 assessed as reduction in bacterial growth; assay type: functional
[7] = system: Bacillus cereus; experiment: Antibacterial activity against Bacillus cereus assessed as reduction in bacterial growth; assay type: functional
[8] = system: Escherichia coli; experiment: Bactericidal activity against Escherichia coli ATCC 25922 assessed as reduction in bacterial growth; assay type: functional
[9] = system: Escherichia coli; experiment: Antibacterial activity against Escherichia coli ATCC 25922 assessed as reduction in bacterial growth; assay type: functional
[10] = system: Staphylococcus aureus; experiment: Antibacterial activity against methicillin resistant Staphylococcus aureus assessed as reduction in bacterial growth at 1 times MIC by time kill assay; assay type: functional, organism-based
[11] = system: Staphylococcus aureus; experiment: Antibacterial activity against methicillin resistant Staphylococcus aureus assessed as reduction in bacterial growth at 8 times MIC measured at 12 hrs by time kill assay; assay type: functional; set-up: scale not given: the % may be the effect or the level left
[12] = system: Staphylococcus aureus; experiment: Antibacterial activity against methicillin resistant Staphylococcus aureus assessed as reduction in bacterial growth at 8 times MIC measured at 24 hrs by time kill assay; assay type: functional, organism-based
[13] = system: Staphylococcus aureus; experiment: Antibacterial activity against methicillin resistant Staphylococcus aureus assessed as reduction in bacterial growth at 0.5 microg/ml measured for 2 hrs; assay type: functional; conditions: dose 0.5 µg/ml
[14] = system: Staphylococcus aureus; experiment: Antibacterial activity against methicillin resistant Staphylococcus aureus assessed as reduction in bacterial growth at 1 microg/ml measured for 2 hrs; assay type: functional; conditions: dose 1 µg/ml
[15] = system: BV-2; experiment: Cytotoxicity against mouse BV-2 cells assessed as inhibition of cell growth at 20 to 50 microg/ml measured for 24 hrs by MTT assay; assay type: toxicity, cell-based; conditions: bv-2, 24 h, dose 20-50 µg/ml
[16] = system: PC-12; experiment: Cytotoxicity against rat PC12 cells assessed as inhibition of cell growth at 20 to 50 microg/ml measured for 24 hrs by MTT assay; assay type: toxicity, cell-based; conditions: pc-12, 24 h, dose 20-50 µg/ml
[17] = system: Staphylococcus aureus; experiment: Drug resistance against Staphylococcus aureus assessed as fold increase in MIC measured after 19 passaging for 19 days; assay type: functional; conditions: time 19 day
[18] = system: Staphylococcus aureus; experiment: Antibacterial activity against methicillin resistant Staphylococcus aureus assessed as reduction in bacterial growth at 8 microg/ml measured for 2 hrs; assay type: functional; conditions: dose 8 µg/ml
[19] = system: Staphylococcus aureus; experiment: Antibacterial activity against methicillin resistant Staphylococcus aureus assessed as reduction in bacterial growth at 16 microg/ml measured for 2 hrs; assay type: functional; conditions: dose 16 µg/ml
[20] = system: Staphylococcus aureus; experiment: Antibacterial activity against methicillin resistant Staphylococcus aureus assessed as reduction in bacterial growth at 4 times MIC measured at 24 hrs by time kill assay; assay type: functional; set-up: scale not given: the % may be the effect or the level left
[21] = system: Staphylococcus aureus; experiment: Antibacterial activity against methicillin resistant Staphylococcus aureus assessed as reduction in bacterial growth at 2 times MIC measured at 24 hrs by time kill assay; assay type: functional; set-up: scale not given: the % may be the effect or the level left
[22] = system: Staphylococcus aureus; experiment: Antibacterial activity against methicillin resistant Staphylococcus aureus assessed as reduction in bacterial growth at 2 microg/ml measured for 2 hrs; assay type: functional; conditions: dose 2 µg/ml
[23] = biological target: Histone deacetylase 1 (Homo sapiens, UniProt Q13547); experiment: Inhibition of full length C-terminal His/FLAG tagged human recombinant HDAC1 (1 to 482 residues) expressed in baculovirus-infected Sf9 cells using RHK-K(Ac)-AMC as substrate incubated for 2 hrs
Histone deacetylase 1, sequence (Q13547 whole entry, the tested form may be a part): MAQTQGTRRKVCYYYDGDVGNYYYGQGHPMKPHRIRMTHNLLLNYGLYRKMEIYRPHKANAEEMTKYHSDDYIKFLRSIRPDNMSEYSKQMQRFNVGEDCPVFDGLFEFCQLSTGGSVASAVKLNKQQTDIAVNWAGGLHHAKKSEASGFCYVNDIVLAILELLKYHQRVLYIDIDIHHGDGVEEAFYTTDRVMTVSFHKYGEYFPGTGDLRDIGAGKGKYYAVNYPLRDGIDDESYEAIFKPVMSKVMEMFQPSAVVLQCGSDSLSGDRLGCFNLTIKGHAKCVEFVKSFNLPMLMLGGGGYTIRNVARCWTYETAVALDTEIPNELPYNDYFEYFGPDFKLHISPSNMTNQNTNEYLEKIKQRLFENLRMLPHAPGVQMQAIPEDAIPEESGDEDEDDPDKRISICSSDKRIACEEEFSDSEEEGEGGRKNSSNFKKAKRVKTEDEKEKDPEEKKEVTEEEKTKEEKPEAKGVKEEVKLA

Row | Compound | MBC [1] | MIC [2] | MIC [3] | MIC [4] | MIC [5] | MBC [6] | MIC [7] | MBC [8] | MIC [9] | further results
1 | Cn1cc(CN2CCN(Cc3ccc(Cl)cc3Cl)CC2)c2cc(Br)ccc21 | 16 µg/mL (≈ 34.2 µM) | 4 µg/mL (≈ 8.56 µM) | 32 µg/mL (≈ 68.5 µM) | 16 µg/mL (≈ 34.2 µM) | 8 µg/mL (≈ 17.1 µM) | 8 µg/mL (≈ 17.1 µM) | 8 µg/mL (≈ 17.1 µM) | 16 µg/mL (≈ 34.2 µM) | 16 µg/mL (≈ 34.2 µM) | 
2 | CO[C@H]1/C=C/O[C@@]2(C)Oc3c(C)c(O)c4c(O)c(c(/C=N/N5CCN(C)CC5)c(O)c4c3C2=O)NC(=O)/C(C)=C\C=C\[C@H](C)[C@H](O)[C@@H](C)[C@@H](O)[C@@H](C)[C@H](OC(C)=O)[C@@H]1C [RIFAMPIN] | 2 µg/mL (≈ 2.43 µM) | 0.25 µg/mL (≈ 0.304 µM) |  |  | 0.25 µg/mL (≈ 0.304 µM) | 1 µg/mL (≈ 1.22 µM) |  | 8 µg/mL (≈ 9.72 µM) | 4 µg/mL (≈ 4.86 µM) | Activity [10]: Active; Activity [11]: 99.9%; Activity [12]: Active; PAE [13]: 1.8 h; PAE [14]: 3.45 h
3 | COc1ccc2[nH]cc(CN3CCN(Cc4ccc(C(F)(F)F)cc4N4CCCC4)CC3)c2c1 |  | 8 µg/mL (≈ 16.9 µM) | 16 µg/mL (≈ 33.9 µM) | 16 µg/mL (≈ 33.9 µM) | 16 µg/mL (≈ 33.9 µM) |  | 16 µg/mL (≈ 33.9 µM) |  | 32 µg/mL (≈ 67.7 µM) | 
4 | Fc1ccc2[nH]cc(CN3CCN(Cc4ccc(Cl)cc4Cl)CC3)c2c1 |  | 8 µg/mL (≈ 20.4 µM) | 32 µg/mL (≈ 81.6 µM) | 32 µg/mL (≈ 81.6 µM) | 8 µg/mL (≈ 20.4 µM) |  | 8 µg/mL (≈ 20.4 µM) |  | 32 µg/mL (≈ 81.6 µM) | 
5 | Cn1cc(CN2CCN(Cc3ccc(Cl)cc3Cl)CC2)c2cc(Cl)ccc21 | 8 µg/mL (≈ 18.9 µM) | 4 µg/mL (≈ 9.46 µM) | 8 µg/mL (≈ 18.9 µM) | 8 µg/mL (≈ 18.9 µM) | 4 µg/mL (≈ 9.46 µM) | 8 µg/mL (≈ 18.9 µM) | 4 µg/mL (≈ 9.46 µM) | 16 µg/mL (≈ 37.8 µM) | 16 µg/mL (≈ 37.8 µM) | Activity [15]: Non-Toxic; Activity [10]: Active; Activity [16]: Non-Toxic; fold change (FC) [17]: <4; PAE [18]: 1.6 h; PAE [19]: 2.21 h; Activity [12]: Active
6 | O=[N+]([O-])c1ccc2[nH]cc(CN3CCN(Cc4ccc(Cl)cc4Cl)CC3)c2c1 |  | 8 µg/mL (≈ 19.1 µM) | 32 µg/mL (≈ 76.3 µM) | 32 µg/mL (≈ 76.3 µM) | 8 µg/mL (≈ 19.1 µM) |  | 8 µg/mL (≈ 19.1 µM) |  | 32 µg/mL (≈ 76.3 µM) | 
7 | Clc1ccc(CN2CCN(Cc3c[nH]c4ccc(Br)cc34)CC2)c(Cl)c1 | 8 µg/mL (≈ 17.7 µM) | 4 µg/mL (≈ 8.83 µM) | 8 µg/mL (≈ 17.7 µM) | 16 µg/mL (≈ 35.3 µM) | 4 µg/mL (≈ 8.83 µM) | 4 µg/mL (≈ 8.83 µM) | 4 µg/mL (≈ 8.83 µM) | 16 µg/mL (≈ 35.3 µM) | 16 µg/mL (≈ 35.3 µM) | Activity [15]: Non-Toxic; Activity [20]: 99.9%; Activity [16]: Non-Toxic; fold change (FC) [17]: <4; PAE [18]: 1.62 h; PAE [19]: 2.91 h; Activity [21]: 99.5%
8 | O=C(O)c1cn(C2CC2)c2cc(N3CCNCC3)c(F)cc2c1=O [CIPROFLOXACIN] |  | 0.5 µg/mL (≈ 1.51 µM) |  |  | 0.5 µg/mL (≈ 1.51 µM) | 2 µg/mL (≈ 6.04 µM) |  | 1 µg/mL (≈ 3.02 µM) |  | Activity [10]: Active; PAE [22]: 1.58 h; Activity [11]: 99.9%; Activity [12]: Active; PAE [14]: 1.22 h
9 | O=C1CN(Cc2ccc(C(=O)NO)cc2)C(=O)[C@H](Cc2c[nH]c3ccccc23)N1 |  |  |  |  |  |  |  |  |  | pIC50 [23]: 6.39
10 | Cn1cc(CN2CCN(Cc3ccc(Cl)cc3Cl)CC2)c2cc([N+](=O)[O-])ccc21 |  | 8 µg/mL (≈ 18.5 µM) | 32 µg/mL (≈ 73.8 µM) | 64 µg/mL (≈ 148 µM) | 8 µg/mL (≈ 18.5 µM) |  | 8 µg/mL (≈ 18.5 µM) |  | 64 µg/mL (≈ 148 µM) | 
11 | Clc1ccc(CN2CCN(Cc3c[nH]c4ccc(Cl)cc34)CC2)c(Cl)c1 |  | 8 µg/mL (≈ 19.6 µM) | 16 µg/mL (≈ 39.1 µM) | 32 µg/mL (≈ 78.3 µM) | 8 µg/mL (≈ 19.6 µM) |  | 8 µg/mL (≈ 19.6 µM) |  | 16 µg/mL (≈ 39.1 µM) | 
12 | GENTAMICIN | 8 µg/mL | > 128 µg/mL | 16 µg/mL | 8 µg/mL | 4 µg/mL | > 128 µg/mL | 8 µg/mL | 4 µg/mL | 4 µg/mL | 
